Results taken from patent US20100160454A1, “ANTIMICROBIAL AGENTS, COMPOSITIONS AND PRODUCTS CONTAINING THE SAME, AND METHODS OF USING THE COMPOSITIONS AND PRODUCTS” (Eastman Chemical Company, priority 2008, published 2010).

How the values were obtained:
Type in all cases: cell-based
[1] = system: Streptococcus mutans ATCC 35668; test: Microbiological challenge testing in BPW broth, graded subculture counts
Method in brief: (§1)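 Challenge substrates of BPW plus 1% dextrose containing the test material (w/v) or broth alone were inoculated to 10^5–10^6 CFU/mL. Bacteria had been precultured in dextrose TSB at 35 °C for at least 96 h. CFU/mL came from plate count × dilution factor on PCA after ≥48 h at 35 °C.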

[2] = system: Staphylococcus epidermidis ATCC 12228; test: as above
Method in brief: as §1

[3] = system: Burkholderia cepacia Wild type; test: as above; settings: B. cepacia
Method in brief: as §1

[4] = system: Microsporum canis (ATTC 9084); test: Challenge testing against pathogenic fungi, growth rating in broth tubes; set-up: key: 0: No visible growth; 1: Some growth in tube; 2: Moderate growth in tube; 3: Good growth in tube; 4: Extreme growth in tube
Method in brief: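 Fungi grown in Sabouraud dextrose broth (M. furfur with 2% olive oil/0.2% Tween 80), 22±2 °C; tubes of 1,4-CHDM-D90 dilutions inoculated, static incubation, subcultured at 3, 14, 30 days, triplicate. Growth rated 0–4: visually (M. canis), INT redox dye (T. rubrum), pellicle formation (M. furfur); 30-day MIC.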

Compound: CC1(C)C(O)C(C)(C)C1O (stereo not drawn) [TMCBD, 2,2,4,4-tetramethyl-1,3-cyclobutanediol]
- S. mutans growth grade, 3 day ([1]; 0.5% weight/volume): 4 (1000 to 10,000 colonies countable (thus 10,000 CFU/mL to 100,000 CFU/mL))
- S. mutans growth grade, 13 day ([1]; 0.5% weight/volume): 4 (1000 to 10,000 colonies countable (thus 10,000 CFU/mL to 100,000 CFU/mL))
- S. mutans growth grade, 30 day ([1]; 0.5% weight/volume): 4 (1000 to 10,000 colonies countable (thus 10,000 CFU/mL to 100,000 CFU/mL))
- S. mutans growth grade, 3 day ([1]; 1.25% weight/volume): 4 (1000 to 10,000 colonies countable (thus 10,000 CFU/mL to 100,000 CFU/mL))
- S. mutans growth grade, 13 day ([1]; 1.25% weight/volume): 4 (1000 to 10,000 colonies countable (thus 10,000 CFU/mL to 100,000 CFU/mL))
- S. mutans growth grade, 30 day ([1]; 1.25% weight/volume): 4 (1000 to 10,000 colonies countable (thus 10,000 CFU/mL to 100,000 CFU/mL))
- S. mutans growth grade, 3 day ([1]; 2.5% weight/volume): 3 (100 to 1000 colonies (thus 1000 to 10,000 CFU/mL))
- S. mutans growth grade, 13 day ([1]; 2.5% weight/volume): 1 (0 to 51 colonies counted (thus 10 to 510 CFU/mL based on 0.1-mL sample))
- S. mutans growth grade, 30 day ([1]; 2.5% weight/volume): 0
- S. mutans growth grade, 3 day ([1]; 5.0% weight/volume): 0
- S. mutans growth grade, 13 day ([1]; 5.0% weight/volume): 0
- S. mutans growth grade, 30 day ([1]; 5.0% weight/volume): 0
- S. epidermidis growth grade, 3 day ([2]; 0.5% weight/volume): 4 (1000 to 10,000 colonies countable (thus 10,000 CFU/mL to 100,000 CFU/mL))
- S. epidermidis growth grade, 13 day ([2]; 0.5% weight/volume): 4 (1000 to 10,000 colonies countable (thus 10,000 CFU/mL to 100,000 CFU/mL))
- S. epidermidis growth grade, 30 day ([2]; 0.5% weight/volume): 4 (1000 to 10,000 colonies countable (thus 10,000 CFU/mL to 100,000 CFU/mL))
- S. epidermidis growth grade, 3 day ([2]; 1.25% weight/volume): 2 (52 to 100 colonies counted (thus 520 to 1000 CFU/mL))
- S. epidermidis growth grade, 13 day ([2]; 1.25% weight/volume): 3 (100 to 1000 colonies (thus 1000 to 10,000 CFU/mL))
- S. epidermidis growth grade, 30 day ([2]; 1.25% weight/volume): 4 (1000 to 10,000 colonies countable (thus 10,000 CFU/mL to 100,000 CFU/mL))
- S. epidermidis growth grade, 3 day ([2]; 2.5% weight/volume): 2 (52 to 100 colonies counted (thus 520 to 1000 CFU/mL))
- S. epidermidis growth grade, 13 day ([2]; 2.5% weight/volume): 2 (52 to 100 colonies counted (thus 520 to 1000 CFU/mL))
- S. epidermidis growth grade, 30 day ([2]; 2.5% weight/volume): 2 (52 to 100 colonies counted (thus 520 to 1000 CFU/mL))
- S. epidermidis growth grade, 3 day ([2]; 5.0% weight/volume): 1 (0 to 51 colonies counted (thus 10 to 510 CFU/mL based on 0.1-mL sample))
- S. epidermidis growth grade, 13 day ([2]; 5.0% weight/volume): 0
- S. epidermidis growth grade, 30 day ([2]; 5.0% weight/volume): 0
- Grade ([3]; 0.5% (wt/vol), 3 day): 4 (1000 to 10,000 colonies countable (thus 10,000 CFU/mL to 100,000 CFU/mL))
- Grade ([3]; 0.5% (wt/vol), 14 day): 4 (1000 to 10,000 colonies countable (thus 10,000 CFU/mL to 100,000 CFU/mL))
- Grade ([3]; 0.5% (wt/vol), 30 day): 4 (1000 to 10,000 colonies countable (thus 10,000 CFU/mL to 100,000 CFU/mL))
- Grade ([3]; 1.25% (wt/vol), 3 day): 3 (100 to 1000 colonies (thus 1000 to 10,000 CFU/mL))
- Grade ([3]; 1.25% (wt/vol), 14 day): 2 (52 to 100 colonies counted (thus 520 to 1000 CFU/mL))
- Grade ([3]; 1.25% (wt/vol), 30 day): 4 (1000 to 10,000 colonies countable (thus 10,000 CFU/mL to 100,000 CFU/mL))
- Grade ([3]; 2.5% (wt/vol), 3 day): 1 (0 to 51 colonies counted (thus 10 to 510 CFU/mL based on 0.1-mL sample))
- Grade ([3]; 2.5% (wt/vol), 14 day): 0
- Grade ([3]; 2.5% (wt/vol), 30 day): 0
- Grade ([3]; 5.0% (wt/vol), 3 day): 1 (0 to 51 colonies counted (thus 10 to 510 CFU/mL based on 0.1-mL sample))
- Grade ([3]; 5.0% (wt/vol), 14 day): 0
- Grade ([3]; 5.0% (wt/vol), 30 day): 0
- M. canis growth rating, 3 day ([4]; 0.5% weight/volume): 2
- M. canis growth rating, 14 day ([4]; 0.5% weight/volume): 1
- M. canis growth rating, 30 day ([4]; 0.5% weight/volume): 1
- M. canis growth rating, 3 day ([4]; 1.25% weight/volume): 2
- M. canis growth rating, 14 day ([4]; 1.25% weight/volume): 1
- M. canis growth rating, 30 day ([4]; 1.25% weight/volume): 0
- M. canis growth rating, 3 day ([4]; 2.5% weight/volume): 2
- M. canis growth rating, 14 day ([4]; 2.5% weight/volume): 1
- M. canis growth rating, 30 day ([4]; 2.5% weight/volume): 1
- M. canis growth rating, 3 day ([4]; 5.0% weight/volume): 2
- M. canis growth rating, 14 day ([4]; 5.0% weight/volume): 1
- M. canis growth rating, 30 day ([4]; 5.0% weight/volume): 1
